How the values were obtained:
Format in all cases: binding
NMUR1 = biological target: T1, NMUR1 (Homo sapiens, UniProt Q9HB89); assay: NanoBRET screen HiBiT-NMUR1 in HEK293
T1 construct: purchased Promega (in-house HiBiT-GPCR construct library, NanoBRET)
T1 sequence (Q9HB89 1-426): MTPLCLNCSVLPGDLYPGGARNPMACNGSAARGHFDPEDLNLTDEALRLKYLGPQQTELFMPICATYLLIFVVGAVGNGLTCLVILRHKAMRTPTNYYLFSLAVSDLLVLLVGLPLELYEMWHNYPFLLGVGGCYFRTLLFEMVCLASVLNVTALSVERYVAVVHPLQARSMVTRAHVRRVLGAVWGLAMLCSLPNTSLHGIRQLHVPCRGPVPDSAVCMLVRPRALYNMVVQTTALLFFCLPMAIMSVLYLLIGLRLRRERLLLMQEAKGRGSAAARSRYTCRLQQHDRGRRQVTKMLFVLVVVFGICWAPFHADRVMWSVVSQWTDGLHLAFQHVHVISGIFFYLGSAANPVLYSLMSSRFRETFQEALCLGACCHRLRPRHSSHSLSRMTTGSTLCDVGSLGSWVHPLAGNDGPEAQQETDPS
Method: (§1) Each tracer candidate was screened across the entire library of HiBiT-GPCR constructs using NanoBRET as the detection modality. As depicted in Figure 4A, the specificity of interactions was evaluated through decrease in BRET due to competitive displacement of a bound tracer by excess parental compound. Each tracer was analyzed for binding to each HiBiT-GPCR fusion in the absence and in the presence of competing parental compound. Briefly, HEK293 cells were transfected with HiBiT-GPCR constructs diluted into promoterless DNA to reduce expression and maximize translocation to the cell surface. Each tracer candidate was then screened at concentrations of 1 μM and 0.1 μM across cells expressing these fusions. Cells were treated for 1.5 h with tracer either alone or in the presence of 20 μM competing parental compound (i.e., control). BRET was measured upon addition of purified LgBiT and subsequent complementation with HiBiT genetically fused to a GPCR. The specificity of interactions was assessed through a decrease in BRET signal due to competitive displacement of the bound tracer. To further gauge the robustness of these interactions, the fold response over the control (i.e., BRETtracer/BRETcontrol) was calculated. We chose a 1.5-fold response, which translates to ≥7-fold signal over noise as the minimal threshold required to score an interaction as positive. […]. Below we highlight the screening results obtained for our exemplary fluorescent tracers based on Clozapine, Amitriptyline and AZD1283.
(§2) HiBiT-GPCR DNA constructs were diluted in 10 mM Tris pH 8 to a final concentration of 0.01 μg/μL, arrayed in 96-well plates and stored at −20 °C. For transfection, HEK293 cells were suspended in Opti-MEM (without phenol red) supplemented with 2% fetal bovine serum (Seradigm) and 100 units/mL penicillin–streptomycin (Gibco) at a final concentration of 220,000 cells/mL and dispensed into white 96-well plates at 90 μL/well. Subsequent transfections and screens were carried using an Agilent Bravo Automated Liquid Handling Platform. First, the 96-well HiBiT DNA arrays were diluted 25-fold in Opti-MEM (without serum or phenol red) to a final concentration of 0.0004 μg/μL and 20 μL of the diluted DNAs were transferred into new 96-well plates. Next, promoterless carrier DNA (1 μg/μL) was diluted 25-fold (0.04 μg/μL) and then dispensed into the diluted arrays at 20 μL/well. Following brief mixing, Viafect transfection reagent (Promega) diluted 16-fold into Opti-MEM was dispensed into the plates at 40 μL/well. After mixing by pipetting, plates were incubated for 10 min on the pipetting station deck. The DNA-transfection reagent complexes were then added to plates containing cells. To facilitate the screen, 10 μL of DNA-transfection reagent complexes were added in duplicates to the top 4 and bottom 4 rows, resulting in two identical 48-well arrays per plate. Plates with transfected cells were incubated for 18–20 h at 37 °C/5% CO2. A screen of each tracer across the entire library using two different concentrations requires duplicate plates of transfected cells. Depending on the number of tracers being screened, transfections can be scaled up using the same ratios. The next day, for each tracer, four 20× screening solutions in tracer dilution buffer (Promega) were prepared: two duplicates at final concentration of 20 μM and two duplicates at a final concentration of 2 μM. A competing unmodified compound was added to one of each duplicate at a final concentration of 400 μM. The four resulting solutions were diluted 4-fold in Opti-MEM without serum or phenol red to generate 5× solutions (5 µM and 0.5 µM tracer +/− 100 μM competing compound). To screen the library, a BioTek MultiFlo FX liquid dispenser was used to dispense 22.5 µL of tracer solution to the top 4 rows and 22.5 µL tracer + competing compound solution to the 4 bottom rows. Plates were briefly mixed on an orbital shaker and incubated for 1.5 h at room temperature. […]

GRM8 = biological target: T2, GRM8 (Homo sapiens, UniProt O00222); assay: NanoBRET screen HiBiT-GRM8 in HEK293; conditions: GRM8
T2 construct: purchased Promega (in-house HiBiT-GPCR construct library, NanoBRET)
T2 sequence (O00222 34-908): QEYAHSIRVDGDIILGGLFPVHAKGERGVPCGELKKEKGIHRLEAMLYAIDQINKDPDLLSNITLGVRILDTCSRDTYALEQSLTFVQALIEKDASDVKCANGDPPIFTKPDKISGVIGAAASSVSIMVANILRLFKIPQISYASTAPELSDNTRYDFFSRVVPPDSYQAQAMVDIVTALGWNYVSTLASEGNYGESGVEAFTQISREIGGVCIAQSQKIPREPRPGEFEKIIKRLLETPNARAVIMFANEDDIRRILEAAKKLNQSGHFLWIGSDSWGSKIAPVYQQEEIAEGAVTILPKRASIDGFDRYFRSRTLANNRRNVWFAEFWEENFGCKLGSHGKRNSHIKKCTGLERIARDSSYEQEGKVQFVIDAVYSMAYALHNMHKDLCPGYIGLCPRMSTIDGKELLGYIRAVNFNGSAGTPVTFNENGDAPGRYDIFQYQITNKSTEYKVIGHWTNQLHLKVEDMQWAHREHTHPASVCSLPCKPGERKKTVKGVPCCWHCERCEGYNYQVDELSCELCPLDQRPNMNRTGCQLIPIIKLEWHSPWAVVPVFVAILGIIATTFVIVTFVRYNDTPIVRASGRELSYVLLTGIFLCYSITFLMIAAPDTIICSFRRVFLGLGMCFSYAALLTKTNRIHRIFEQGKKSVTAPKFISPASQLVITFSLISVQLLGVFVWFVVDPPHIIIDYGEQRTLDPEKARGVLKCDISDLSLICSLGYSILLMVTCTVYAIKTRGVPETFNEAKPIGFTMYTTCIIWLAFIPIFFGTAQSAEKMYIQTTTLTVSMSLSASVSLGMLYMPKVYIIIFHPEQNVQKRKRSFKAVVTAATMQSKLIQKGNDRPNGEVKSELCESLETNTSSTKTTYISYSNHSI
Method: as §1, §2

TBXA2R = biological target: T3, TBXA2R (Homo sapiens, UniProt P21731); assay: NanoBRET screen HiBiT-TBXA2R in HEK293
T3 construct: purchased Promega (in-house HiBiT-GPCR construct library, NanoBRET)
T3 sequence (P21731 1-343): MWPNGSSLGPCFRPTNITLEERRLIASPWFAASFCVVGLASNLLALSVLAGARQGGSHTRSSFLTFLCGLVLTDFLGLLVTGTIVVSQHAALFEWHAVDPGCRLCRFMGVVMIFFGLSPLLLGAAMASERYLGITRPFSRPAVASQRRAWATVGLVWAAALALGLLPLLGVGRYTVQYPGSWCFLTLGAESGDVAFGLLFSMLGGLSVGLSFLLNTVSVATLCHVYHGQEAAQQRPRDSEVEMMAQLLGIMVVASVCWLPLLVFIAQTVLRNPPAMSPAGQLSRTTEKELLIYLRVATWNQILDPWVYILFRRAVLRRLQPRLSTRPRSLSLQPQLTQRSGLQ
Method: as §1, §2

HRH3 = biological target: T4, HRH3 (Homo sapiens, UniProt Q9Y5N1); assay: NanoBRET screen HiBiT-HRH3 in HEK293
T4 construct: purchased Promega (in-house HiBiT-GPCR construct library, NanoBRET)
T4 sequence (Q9Y5N1 whole entry): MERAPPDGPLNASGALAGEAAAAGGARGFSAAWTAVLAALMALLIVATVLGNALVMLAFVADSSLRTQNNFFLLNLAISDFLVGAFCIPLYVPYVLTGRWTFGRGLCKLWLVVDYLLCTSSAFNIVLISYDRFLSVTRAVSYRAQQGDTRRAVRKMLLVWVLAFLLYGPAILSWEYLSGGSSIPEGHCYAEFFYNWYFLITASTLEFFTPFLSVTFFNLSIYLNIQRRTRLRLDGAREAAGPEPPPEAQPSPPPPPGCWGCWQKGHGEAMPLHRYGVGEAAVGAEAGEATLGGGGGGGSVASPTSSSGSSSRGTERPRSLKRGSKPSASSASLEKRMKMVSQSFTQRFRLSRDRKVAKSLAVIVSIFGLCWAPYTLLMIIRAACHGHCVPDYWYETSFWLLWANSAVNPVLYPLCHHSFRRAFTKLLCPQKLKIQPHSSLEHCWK
Method: as §1, §2

MC3R = biological target: T5, MC3R (Homo sapiens, UniProt P41968); assay: NanoBRET screen HiBiT-MC3R in HEK293
T5 construct: purchased Promega (in-house HiBiT-GPCR construct library, NanoBRET)
T5 sequence (P41968 whole entry): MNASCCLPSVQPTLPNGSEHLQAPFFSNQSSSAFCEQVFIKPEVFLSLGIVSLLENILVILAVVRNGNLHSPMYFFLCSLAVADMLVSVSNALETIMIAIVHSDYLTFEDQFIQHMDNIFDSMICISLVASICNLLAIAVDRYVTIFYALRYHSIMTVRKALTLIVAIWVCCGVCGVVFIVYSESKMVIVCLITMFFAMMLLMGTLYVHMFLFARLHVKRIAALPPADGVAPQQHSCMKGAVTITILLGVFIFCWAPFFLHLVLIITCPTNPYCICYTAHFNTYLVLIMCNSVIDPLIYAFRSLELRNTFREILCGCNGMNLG
Method: as §1, §2

[1] = tracer at 0.1μM, listed as amitriptyline-b-2-NB590
[2] = tracer at 1μM, listed as amitriptyline-b-2-NB590

SMILES	NanoBRET Fold Response (NMUR1; NMUR1, tracer 0.1μM)	NanoBRET Fold Response (NMUR1; NMUR1, tracer 1μM)	NanoBRET Fold Response (GRM8; tracer 0.1μM)	NanoBRET Fold Response (GRM8; tracer 1μM)	NanoBRET Fold Response (TBXA2R; TBXA2R, tracer 0.1μM)	NanoBRET Fold Response (TBXA2R; TBXA2R, tracer 1μM)	NanoBRET Fold Response (HRH3; HRH3, tracer 0.1μM)	NanoBRET Fold Response (HRH3; HRH3, tracer 1μM)	NanoBRET Fold Response (MC3R; MC3R, tracer 0.1μM)	NanoBRET Fold Response (MC3R; MC3R, tracer 1μM)	further results
CC(C)N(CC[C@H](c1ccccc1)c1cc(CCNC(=O)CCOCCOCCOCCOCCNC(=O)CCc2ccc3n2[B-](F)(F)[N+]2=C(c4ccc[nH]4)C=CC2=C3)ccc1O)C(C)C [Tolterodine-2-NB590]	0.94	1.12	1.00	1.31	0.79	1.01	1.49	1.07	0.82	1.04	
N#CN=C(NCCCOc1cccc(CN2CCCCC2)c1)NCCNC(=O)CCOCCOCCOCCOCCNC(=O)CCc1ccc2n1[B-](F)(F)[N+]1=C(c3ccc[nH]3)C=CC1=C2 [Aminopotentidine-2-NB590]	1.05	0.98	1.01	0.99	0.98	1.04	2.54	2.06	1.00	1.01	
CCOC(=O)c1cc(C#N)c(N2CCC(C(=O)NS(=O)(=O)Cc3ccccc3/C=C/C(=O)NCCNC(=O)CCc3ccc4n3[B-](F)(F)[N+]3=C(c5ccc[nH]5)C=CC3=C4)CC2)nc1C [AZD1283-1-NB590]											NanoBRET Fold Response (NMUR1; NMUR1, 0.1μM): 1.05; NanoBRET Fold Response (NMUR1; NMUR1, 1μM): 1.04; NanoBRET Fold Response (GRM8; 0.1μM): 0.99; NanoBRET Fold Response (GRM8; 1μM): 1.01; NanoBRET Fold Response (TBXA2R; TBXA2R, 0.1μM): 1.04; NanoBRET Fold Response (TBXA2R; TBXA2R, 1μM): 1.19; NanoBRET Fold Response (HRH3; HRH3, 0.1μM): 1.16; NanoBRET Fold Response (HRH3; HRH3, 1μM): 0.87; NanoBRET Fold Response (MC3R; MC3R, 0.1μM): 1.00; NanoBRET Fold Response (MC3R; MC3R, 1μM): 0.98
CN(C)CCC=C1c2ccccc2CCc2ccc(C(=O)NCCNC(=O)CCOCCOCCOCCOCCNC(=O)CCc3ccc4n3[B-](F)(F)[N+]3=C(c5ccc[nH]5)C=CC3=C4)cc21 [Amitriptyline-b-2-NB590]			1.01	0.99							NanoBRET Fold Response (NMUR1; [1]): 1.14; NanoBRET Fold Response (NMUR1; [2]): 1.10; NanoBRET Fold Response (TBXA2R; tracer at 0.1μM): 0.90; NanoBRET Fold Response (TBXA2R; tracer at 1μM): 1.01; NanoBRET Fold Response (HRH3; [1]): 1.62; NanoBRET Fold Response (HRH3; [2]): 1.31; NanoBRET Fold Response (MC3R; tracer at 0.1μM): 0.98; NanoBRET Fold Response (MC3R; tracer at 1μM): 0.98
O=C(CCc1ccc2n1[B-](F)(F)[N+]1=C(c3ccc[nH]3)C=CC1=C2)NCCOCCOCCNC(=O)OCCOCCN1CCN(C2=Nc3ccccc3Sc3ccccc32)CC1 [Quetiapine-a-2-NB590]	1.01	0.81	0.98	1.00	1.01	1.05	1.09	0.98	0.98	1.08	

Reference: article PMC8151276, “An Integrated Approach toward NanoBRET Tracers for Analysis of GPCR Ligand Engagement” (Molecules, 2021)
